Source: patent US6458568B1, “Method for the production of baccatin-III by enzymatic synthesis” (Institut fuer Bioanalytik, Umwelt-Toxikologie und …, priority 1998, dated 2002)

Tested on: acetyl transferase from Taxus baccata
Assay: Enzymatic acetylation of substrates in the enzyme reactor (substrate specificity)
Assay type: biochemical
Conditions: used as in the example in place of 10-DAB; compared with 10-deacetyl baccatin III
Procedure: The synthesis in the enzyme reactor is carried out under the following conditions: The solvent used in the process is a 1:4 mixture of chloroform and heptane.

| Compound | acetylation as substrate of the acetyl transferase |
| --- | --- |
| CC(=O)O[C@@]12CO[C@@H]1C[C@H](O)[C@@]1(C)C(=O)[C@H](O)C3=C(C)[C@@H](OC(=O)[C@H](O)[C@@H](NC(=O)c4ccccc4)c4ccccc4)C[C@@](O)([C@@H](OC(=O)c4ccccc4)[C@H]21)C3(C)C [10-Deacetyl taxol] | significantly weaker as a substrate |
| CC(=O)O[C@H]1C(=O)[C@@]2(C)[C@H]([C@H](OC(=O)c3ccccc3)[C@]3(O)C[C@H](OC(=O)[C@H](O)[C@@H](NC(=O)c4ccccc4)c4ccccc4)C(C)=C1C3(C)C)[C@]1(OC(C)=O)CO[C@@H]1C[C@@H]2O [taxol] | not acetylated |
| baccatin III | not acetylated |
